Values of other authors as cited in patent publication US20240050531A1, “A METHOD FOR REVERSING AGING BRAIN FUNCTIONAL DECLINE” (THE CHINESE UNIVERSITY OF HONG KONG, priority 2020, published 2024).
Read-outs that look alike come from different tables or passages of the source.

How the values were obtained:
[1] = intraperitoneal (i.p.) injection
[2] = target: T1, GLP-1R (Rattus norvegicus, UniProt P32301)
T1 construct: host or cells: living rats (8 weeks old), endogenous receptor
T1 sequence (P32301 22-463): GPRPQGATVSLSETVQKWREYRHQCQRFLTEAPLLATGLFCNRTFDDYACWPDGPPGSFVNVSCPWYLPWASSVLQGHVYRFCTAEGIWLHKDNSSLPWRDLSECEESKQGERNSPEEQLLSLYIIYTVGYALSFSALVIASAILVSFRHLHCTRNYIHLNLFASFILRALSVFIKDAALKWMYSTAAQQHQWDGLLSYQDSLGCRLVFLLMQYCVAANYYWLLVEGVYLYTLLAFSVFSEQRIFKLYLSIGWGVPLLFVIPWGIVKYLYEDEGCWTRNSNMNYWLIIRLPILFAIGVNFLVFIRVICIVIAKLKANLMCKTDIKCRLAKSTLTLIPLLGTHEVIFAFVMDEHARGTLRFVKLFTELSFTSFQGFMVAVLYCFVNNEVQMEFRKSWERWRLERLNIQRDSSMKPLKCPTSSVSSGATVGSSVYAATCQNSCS

| Substance | hippocampus-associated reference memory performance [1] | immobility in the forced swim test [1] | associative and spatial learning ([2]; intracerebroventricular (i.c.v) administration, 8 weeks old rats) | associative and spatial learning ([2]; peripheral administration) |
| --- | --- | --- | --- | --- |
| exendin-4 | improves | decreases immobility |  |  |
| [Ser(2)]exendin(1-9) |  |  | enhance associative and spatial learning | also active |
